Data reported in patent publication US20230241243A1, “CARRIER PARTICLE-DRUG CONJUGATES, SELF-IMMOLATIVE LINKERS, AND USES THEREOF” (priority 2020, published 2023).

Tests used:
KB cell line = conditions: read-out: IC50 in KB cell line (++++); FA ligands per particle 12-22; linker-drug conjugates per particle 17-25
Experimental: (§1) The in vitro cytotoxicity of the NDCs disclosed herein were tested in cancer cells. The cancer cells were cultured in folic acid-free medium (RPMI1640, ThermoFisher, GIBCO) for at least one week before the study. Cells were plated in opaque 96-well plates at a density of 3×10^3 cells per well (total of […]) and allowed to attach overnight. The following day, cells were treated with NDC (FA-CDC) prepared using the linker-payload conjugate precursor compound 202 (Example 33), at a concentration range of 0-50 nM (0, 0.001, 0.005, 0.01, 0.05, 0.1, 0.5, 1, 5, 10, 50 nM) by adding […] of 10x stock FA-CDC Solution.
(§2) Cells were treated for a pre-defined exposure time (depending on the study design, e.g., 4-6 hours, or 7 days). In the case of short-exposure-time viability study, cancer cells in each wells were washed with […] PBS and refreshed with […] of cell medium. After washing, the plates were returned back to 37° C. incubator for 7 days before the viability assay. In the case of 7-day-exposure-time viability study, no additional washing step was performed. After 7 days, the cell viability was assessed using the CellTiter-Glo2.0 assay (Promega) according to manufacturer's instructions. Data for both viability and proliferation were plotted using Prism7 software (GraphPad).

SKOV-3 cell line = assay: In vitro cell viability assay of FA-CDCs (CellTiter-Glo2.0); format: cell-based; conditions: FA ligands per particle 12-22; linker-drug conjugates per particle 17-25; read-out: IC50 inSKOV-3 cell line (+++)
Experimental: as §1
as §2, with “(GraphPad). Representative cell viability results of six FA-CDCs with similar surface density of Folic Acid targeting ligands and drug linkers is presented in provided in Table 4.” for “(GraphPad).”

[1] = Drug-release assay of nanoparticle-conjugated linker-payloads under cleavage conditions (Cat-B, redox-responsive or pH-sensitive cleaving study), RP-HPLC; format: in vitro ADME; conditions: linker-payload conjugated to DBCO-functionalized silica nanoparticle, 37° C., 24 hours
Procedure, shortened: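 Azide linker-drugs were click-conjugated to DBCO-functionalized ultrasmall silica nanoparticles and incubated under cleavage conditions, e.g., Cat-B in 25 mM MES, 5 mM DTT, pH 5.0. Released versus non-released drug was quantified by C18 RP-HPLC peak area. Gradients were 0.01% TFA water/acetonitrile for protease/redox linkers and water/acetonitrile for pH-sensitive linkers.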

SMILES	IC50 (KB cell line) [nM]	IC50 (SKOV-3 cell line) [nM]	% of Payload Release in 24 Hours Under Cleavage Conditions [1]
CC[C@@]1(O)C(=O)OCc2c1cc1n(c2=O)Cc2c-1nc1cc(F)c(C)c3c1c2[C@@H](NC(=O)OCc1ccc(NC(=O)[C@H](CCCCN)NC(=O)[C@@H](NC(=O)CCOCCOCCOCCOCCOCCOCCOCCOCCOCCN=[N+]=[N-])C(C)C)cc1)CC3 [Example 33, 4-((32S,35S)-35-(4-aminobutyl)-1-azido-32-isopropyl-30,33-dioxo-3,6,9,12,15,18,21,24,27-nonaoxa-31,34-diazahexatriacontan-36-amido)benzyl ((1S,9S)-9-ethyl-5-fluoro-9-hydroxy-4-methyl-10,13-dioxo-2,3,9,10,13,15-hexahydro-1H,12H-benzo[de]pyrano[3′,4′:6,7]indolizino[1,2-b]quinolin-1-yl)carbamate]	0.3	0.13	++++ (‘++++’ indicates 76-100% release)
CC[C@@]1(O)C(=O)OCc2c1cc1n(c2=O)Cc2c-1nc1cc(F)c(C)c3c1c2[C@@H](NC(=O)OCc1ccc(NC(=O)[C@H](CCCNC(N)=O)NC(=O)[C@@H](NC(=O)CCOCCOCCOCCOCCOCCOCCOCCOCCOCCN=[N+]=[N-])C(C)C)cc1)CC3 [Example 10, 4-((32S,35S)-1-azido-32-isopropyl-30,33-dioxo-35-(3-ureidopropyl)-3,6,9,12,15,18,21,24,27-nonaoxa-31,34-diazahexatriacontan-36-amido)benzyl-((1S,9S)-9-ethyl-5-fluoro-9-hydroxy-4-methyl-10,13-dioxo-2,3,9,10,13,15-hexahydro-1H,12H-benzo-[de]-pyrano-[3′,4′:6,7]-indolizino-[1,2-b]-quinolin-1-yl)-carbamate]		10.7	+++ (‘+++’ indicates 51-75% release)
CC[C@@]1(O)C(=O)OCc2c1cc1n(c2=O)Cc2c-1nc1cc(F)c(C)c3c1c2[C@@H](NC(=O)OCc1ccc(NC(=O)[C@H](CCCCN)NC(=O)[C@H](Cc2ccccc2)NC(=O)CCOCCOCCOCCOCCOCCOCCOCCOCCOCCN=[N+]=[N-])cc1)CC3 (single isomer, unassigned) [Example 25]		0.4	+++ (‘+++’ indicates 51-75% release)
CCc1c2c(nc3ccc(OCC(=O)N/N=C(\C)c4cccc(OCCOCCOCCOCCOCCOCCN=[N+]=[N-])c4)cc13)-c1cc3c(c(=O)n1C2)COC(=O)[C@]3(O)CC [Example 70, (S,E)-N′-(1-(3-((17-azido-3,6,9,12,15-pentaoxaheptadecyl)oxy)phenyl)ethylidene)-2-((4,11-diethyl-4-hydroxy-3,14-dioxo-3,4,12,14-tetrahydro-1H-pyrano[3′,4′:6,7]indolizino[1,2-b]quinolin-9-yl)oxy)acetohydrazide]		17.9	
CC[C@@]1(O)C(=O)OCc2c1cc1n(c2=O)Cc2c-1nc1cc(F)c(C)c3c1c2[C@@H](NC(=O)OCCSSCCNC(=O)CCOCCOCCOCCOCCOCCOCCOCCOCCOCCN=[N+]=[N-])CC3 [Example 57, 37-azido-8-oxo-11,14,17,20,23,26,29,32,35-nonaoxa-3,4-dithia-7-azaheptatriacontyl ((1S,9S)-9-ethyl-5-fluoro-9-hydroxy-4-methyl-10,13-dioxo-2,3,9,10,13,15-hexahydro-1H,12H-benzo[de]pyrano[3′,4′:6,7]indolizino[1,2-b]quinolin-1-yl)carbamate]	0.6	0.9	+++ (‘+++’ indicates 51-75% release)
